# In PMC11152574, “A parameterized two-domain thermodynamic model explains diverse mutational effects on protein allostery” (eLife, 2024):
# Biological target: TetR(B) (Escherichia coli, UniProt P04483)
# Assay: GFP reporter induction in E. coli, Bayesian fit of two-domain thermodynamic model
# Type: cell-based
# Conditions: 37 °C; LB culture; apparent Kd inferred from in vivo induction curve, K of active LBD set to 1 nM; order-of-magnitude model estimate, not a direct binding measurement; unreliable
# Method: GFP reporter induction in E. coli, Bayesian fit of two-domain thermodynamic model on TetR(B) | apparent dissociation constant of WT TetR to ligand is calculated as […]
# Sequence of TetR(B) (P04483 whole entry, looked up): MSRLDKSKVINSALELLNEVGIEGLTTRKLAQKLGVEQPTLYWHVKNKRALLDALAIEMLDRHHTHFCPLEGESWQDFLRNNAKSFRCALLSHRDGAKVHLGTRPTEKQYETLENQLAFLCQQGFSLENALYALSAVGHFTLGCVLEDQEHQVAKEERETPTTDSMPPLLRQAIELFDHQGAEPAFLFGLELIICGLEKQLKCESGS
smiles,measurement,value
Cc1c2c(c(O)c3c(O)cccc13)C(=O)[C@]1(O)C(=O)C(C(N)=O)=C(O)[C@@H](N(C)C)[C@@H]1C2 [anhydrotetracycline],K apparent WT,27.1 nM
